Columns and labels:
[1] = tested on: human prostate cancer cells (PC3); assay: Cytotoxicity by SRB assay, prostate cancer cells; type: cell-based; conditions: for IC50: PC-3, 72 h, mean±SD
Description: (§1) The human prostate cancer cells (PC3) and human osteosarcoma cells (MG-63) were obtained from Nawah Scientific Inc. (Mokatam, Cairo, Egypt) and cultured in DMEM (Dulbecco's modified eagle's medium), Gibco, USA, supplemented with fetal bovine serum (FBS) at a concentration of 10% and 100 U/mL of penicillin and streptomycin (PS). The Cells were incubated at 37° C. in a humidified environment that contained 5% CO2.
(§2) The anticancer activity of 1-cyclopropyl-6-fluoro-4-oxo-7-(4-((5-oxo-2-phenyl-4-(quinolin-2-ylmethylene)-4,5-dihydro-1H-imidazol-1-yl)methyl)piperazin-1-yl)-1,4-dihydroquinoline-3-carboxylic acid was assessed against highly aggressive androgen-independent metastatic human prostate cancer cells (PC3) and osteosarcoma (MG-63) cells.
(§3) Cells were seeded in 96-well plates as aliquots of 100 μL cell suspension and incubated in a complete media for 24 h. afterward, cells were treated with 1-cyclopropyl-6-fluoro-4-oxo-7-(4-((5-oxo-2-phenyl-4-(quinolin-2-ylmethylene)-4,5-dihydro-1H-imidazol-1-yl)methyl)piperazin-1-yl)-1,4-dihydroquinoline-3-carboxylic acid at diverse concentrations ranging from 0.01 μM to 100 μM for 72 h. Then, cells were fixed at 4° C. for one hour with 150 μL of 10% trichloroacetic acid (TCA). After washing the cells five times with distilled water, 70 μL of sulforhodamine (SRB) solution (0.4% w/v) was added and incubated for 10 min at room temperature in a dark place. Cells were washed with 1% acetic acid three times and allowed to air-dry. Then, 150 μL of Tris pH 10.5 (10 mM) was added, and the absorbance was measured at 540 nm using a BMG LABTECH®-FLUOstar Omega microplate reader (Ortenberg, Germany). Half maximal inhibitory concentrations (IC50) values were calculated for each experiment using GraphPad Prism 6 software. IC50 values were reported as mean±SD.
(§4) The inhibition was calculated using the following equation: Inhibition %=100−Average Viability

[2] = tested on: human osteosarcoma cells (MG-63); assay: Cytotoxicity by SRB assay, osteosarcoma cells; type: cell-based; conditions: MG-63, 72 h, mean±SD
Description: as §1, §2, §3, §4

Bovine Serum Albumin = Bovine Serum Albumin (Bos taurus, UniProt P02769); assay: Bovine Serum Albumin assay (BSA), inhibition of protein denaturation; type: biochemical; conditions: pH 6.4, read-out: percentage inhibition of precipitation (protein denaturation)
Chain of Bovine Serum Albumin (P02769 25-607): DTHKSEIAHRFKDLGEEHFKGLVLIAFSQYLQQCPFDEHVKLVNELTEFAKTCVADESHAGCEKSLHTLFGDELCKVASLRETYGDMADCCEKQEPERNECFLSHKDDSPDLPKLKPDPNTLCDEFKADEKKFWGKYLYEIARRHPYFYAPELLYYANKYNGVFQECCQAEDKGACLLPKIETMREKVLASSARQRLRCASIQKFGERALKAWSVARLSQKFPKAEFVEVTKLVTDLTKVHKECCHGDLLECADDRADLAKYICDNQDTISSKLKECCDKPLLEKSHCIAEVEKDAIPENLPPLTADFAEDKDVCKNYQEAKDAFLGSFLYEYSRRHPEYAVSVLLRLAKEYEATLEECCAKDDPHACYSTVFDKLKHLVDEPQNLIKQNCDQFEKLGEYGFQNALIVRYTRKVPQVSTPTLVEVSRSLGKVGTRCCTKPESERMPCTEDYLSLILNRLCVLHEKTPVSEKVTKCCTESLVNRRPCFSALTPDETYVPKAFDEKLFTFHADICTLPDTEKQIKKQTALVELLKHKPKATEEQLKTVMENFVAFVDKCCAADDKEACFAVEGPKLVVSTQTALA
Description: In vitro-inflammatory activities of the tested samples were determined using a modified method of the BSA assay reported by Williams et al. BSA solution (0.4%, w/v) was prepared in Tris Buffered Saline. The pH was adjusted to 6.4 with glacial acetic acid. Different dilutions of 20, 40, 60, 80, and 100 μg/mL of the stock solutions were added to test tubes containing 1 mL of 0.4%, w/v BSA buffer solution. Both negative (solvent) and positive (aspirin) controls were assayed in a similar manner. The solutions were then heated in a water bath at 72° C. for 10 minutes and cooled for 20 minutes under laboratory conditions. The turbidity of the solutions (level of protein precipitation) was measured at 660 nm in Spectrophotometer (V-770 UV-Visible/NIR Spectrophotometer).
The percentage inhibition of precipitation (protein denaturation) was determined relative to the negative control using the following equation: […]

melting point | inhibition at 100 µg/mL (Bovine Serum Albumin) | SMILES | IC50 ([1]; Homo sapiens, 72 h) | inhibition at 10 µg/mL ([1]; Homo sapiens, 72 h, Prostate cancer (PC-3), 10 μg/ml) | IC50 ([1]; listed as Our Product) | Inhibition % ([1]; Prostate cancer (PC-3), 10 μg/ml, 72 h) | IC50 ([2]; Homo sapiens) | IC50 ([2]; listed as Our Product)
231 to 235 °C | 88.1% | O=C(O)c1cn(C2CC2)c2cc(N3CCN(CN4C(=O)/C(=C\c5ccc6ccccc6n5)N=C4c4ccccc4)CC3)c(F)cc2c1=O [Compound 4, 1-cyclopropyl-6-fluoro-4-oxo-7-(4-((5-oxo-2-phenyl-4-(quinolin-2-ylmethylene)-4,5-dihydro-1H-imidazol-1-yl)methyl)piperazin-1-yl)-1,4-dihydroquinoline-3-carboxylic acid] | < 4 µM | 94% | 2.88 ± 0.03 µM | 94.32% | < 4 µM | 3.38 ± 0.2 µM
 |  | COc1cccc2c1C(=O)c1c(O)c3c(c(O)c1C2=O)C[C@@](O)(C(=O)CO)C[C@@H]3O[C@H]1C[C@H](N)[C@H](O)[C@H](C)O1 [DOX, Doxorubicin, reference compound] | 7.6 ± 0.45 µM |  |  |  | 9.4 ± 1.1 µM | 
